Data: ChEMBL document CHEMBL1201862, “PubChem BioAssay data set” (2004)
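Exposure lasted 48 hours, with cells grown in 96-well plates and compounds tested at five concentrations. The concentration for 50% growth inhibition is given as GI50.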 The source made the active and inactive calls. Cut-off read from the data, not from the text of the source: active = GI50 up to about 1.1 µM and inactive = higher.

Legend:
Experiment in all cases: NCI tumour cell line growth inhibition, 48 h
786-0 = test system: 786-0
A498 = test system: A498
A549 = test system: A549
ACHN = test system: ACHN
CCRF-CEM = test system: CCRF-CEM
COLO 205 = test system: COLO 205
DU-145 = test system: DU-145
EKVX = test system: EKVX
HCT-116 = test system: HCT-116
HCT-15 = test system: HCT-15
HOP-62 = test system: HOP-62
HOP-92 = test system: HOP-92
HT-29 = test system: HT-29
Hs-578T = test system: Hs-578T
IGROV-1 = test system: IGROV-1
K562 = test system: K562
KM12 = test system: KM12
LOX IMVI = test system: LOX IMVI
M14 = test system: M14
MCF7 = test system: MCF7
MDA-MB-231 = test system: MDA-MB-231
MDA-MB-435 = test system: MDA-MB-435
MDA-N = test system: MDA-N
MOLT-4 = test system: MOLT-4
Malme-3M = test system: Malme-3M
NCI-H226 = test system: NCI-H226
NCI-H23 = test system: NCI-H23
NCI/ADR-RES = test system: NCI/ADR-RES
OVCAR-3 = test system: OVCAR-3
OVCAR-4 = test system: OVCAR-4
OVCAR-5 = test system: OVCAR-5
OVCAR-8 = test system: OVCAR-8
PC-3 = test system: PC-3
RPMI-8226 = test system: RPMI-8226
SF-268 = test system: SF-268
SF-295 = test system: SF-295
SK-MEL-28 = test system: SK-MEL-28
SK-MEL-2 = test system: SK-MEL-2
SK-MEL-5 = test system: SK-MEL-5
SK-OV-3 = test system: SK-OV-3
SN12C = test system: SN12C
SNB-19 = test system: SNB-19
SNB-75 = test system: SNB-75
SW-620 = test system: SW-620
TK-10 = test system: TK-10
U-251 = test system: U-251
UACC-257 = test system: UACC-257
UACC-62 = test system: UACC-62
UO-31 = test system: UO-31
CAKI-1 = test system: CAKI-1
HCC 2998 = test system: HCC 2998
HL-60 = test system: HL-60
NCI-H460 = test system: NCI-H460
RXF 393 = test system: RXF 393
SF-539 = test system: SF-539
SR = test system: SR

O/N=C/[C@H]1COC2(CCCCC2)O1 was tested, and the GI50 (786-0) was > 100 µM (inactive), the GI50 (A498) was > 100 µM (inactive) and the GI50 (A549) was > 100 µM (inactive). The GI50 (ACHN) was > 100 µM (inactive), the GI50 (CCRF-CEM) was > 100 µM (inactive) and the GI50 (COLO 205) was > 100 µM (inactive). The GI50 (DU-145) was > 100 µM (inactive), the GI50 (EKVX) was > 100 µM (inactive) and the GI50 (HCT-116) was > 100 µM (inactive). For the same molecule, the GI50 (HCT-15) was greater than 100 µM, the GI50 (HOP-62) was > 100 µM (inactive) and the GI50 (HOP-92) was 31.6 µM (inactive). The GI50 (HT-29) was > 100 µM (inactive), the GI50 (Hs-578T) was > 100 µM (inactive) and the GI50 (IGROV-1) was > 100 µM (inactive). For the same molecule, the GI50 (K562) was > 100 µM (inactive), the GI50 (KM12) was > 100 µM (inactive) and the GI50 (LOX IMVI) was > 100 µM (inactive). For the same molecule, the GI50 (M14) was > 100 µM (inactive), the GI50 (MCF7) was > 100 µM (inactive) and the GI50 (MDA-MB-231) was > 100 µM (inactive). The GI50 (MDA-MB-435) was > 100 µM (inactive), the GI50 (MDA-N) was > 100 µM (inactive) and the GI50 (MOLT-4) was > 100 µM (inactive). For the same molecule, the GI50 (Malme-3M) was > 100 µM (inactive), the GI50 (NCI-H226) was > 100 µM (inactive) and the GI50 (NCI-H23) was > 100 µM (inactive). For the same molecule, the GI50 (NCI/ADR-RES) was > 100 µM (inactive), the GI50 (OVCAR-3) was > 100 µM (inactive) and the GI50 (OVCAR-4) was > 100 µM (inactive). The GI50 (OVCAR-5) was > 100 µM (inactive), the GI50 (OVCAR-8) was > 100 µM (inactive) and the GI50 (PC-3) was > 100 µM (inactive). For the same molecule, the GI50 (RPMI-8226) was > 100 µM (inactive), the GI50 (SF-268) was > 100 µM (inactive) and the GI50 (SF-295) was > 100 µM (inactive). For the same molecule, the GI50 (SK-MEL-28) was > 100 µM (inactive), the GI50 (SK-MEL-2) was > 100 µM (inactive) and the GI50 (SK-MEL-5) was > 100 µM (inactive). The GI50 (SK-OV-3) was > 100 µM (inactive), the GI50 (SN12C) was > 100 µM (inactive) and the GI50 (SNB-19) was > 100 µM (inactive). The GI50 (SNB-75) was > 100 µM (inactive), the GI50 (SW-620) was > 100 µM (inactive) and the GI50 (TK-10) was > 100 µM (inactive). The GI50 (U-251) was > 100 µM (inactive), the GI50 (UACC-257) was > 100 µM (inactive) and the GI50 (UACC-62) was > 100 µM (inactive). The GI50 (UO-31) was > 100 µM (inactive).

With c1csc(-c2ccc(-c3ccc(-c4ccc(-c5cccs5)s4)s3)s2)c1 the GI50 (786-0) was > 100 µM (inactive), the GI50 (A498) was > 100 µM (inactive) and the GI50 (ACHN) was > 100 µM (inactive). The GI50 (CAKI-1) was > 100 µM (inactive), the GI50 (CCRF-CEM) was 26.5 µM (inactive) and the GI50 (COLO 205) was > 100 µM (inactive). For the same molecule, the GI50 (DU-145) was > 100 µM (inactive), the GI50 (EKVX) was > 100 µM (inactive) and the GI50 (HCC 2998) was > 100 µM (inactive). For the same molecule, the GI50 (HCT-116) was > 100 µM (inactive), the GI50 (HCT-15) was greater than 100 µM and the GI50 (HL-60) was 14.8 µM (inactive). The GI50 (HOP-62) was 34 µM (inactive), the GI50 (HOP-92) was > 100 µM (inactive) and the GI50 (HT-29) was > 100 µM (inactive). The GI50 (Hs-578T) was > 100 µM (inactive), the GI50 (IGROV-1) was > 100 µM (inactive) and the GI50 (K562) was 47.1 µM (inactive). The GI50 (M14) was 26.9 µM (inactive), the GI50 (MCF7) was 8.36 µM (inactive) and the GI50 (MDA-MB-435) was > 100 µM (inactive). For the same molecule, the GI50 (MOLT-4) was 31.6 µM (inactive), the GI50 (NCI-H226) was > 100 µM (inactive) and the GI50 (NCI-H23) was > 100 µM (inactive). The GI50 (NCI-H460) was > 100 µM (inactive), the GI50 (NCI/ADR-RES) was > 100 µM (inactive) and the GI50 (OVCAR-3) was > 100 µM (inactive). For the same molecule, the GI50 (OVCAR-5) was > 100 µM (inactive), the GI50 (OVCAR-8) was > 100 µM (inactive) and the GI50 (RPMI-8226) was > 100 µM (inactive). For the same molecule, the GI50 (RXF 393) was 56.5 µM (inactive), the GI50 (SF-268) was > 100 µM (inactive) and the GI50 (SF-295) was 40.6 µM (inactive). For the same molecule, the GI50 (SF-539) was > 100 µM (inactive), the GI50 (SK-MEL-5) was > 100 µM (inactive) and the GI50 (SK-OV-3) was > 100 µM (inactive). The GI50 (SN12C) was > 100 µM (inactive), the GI50 (SNB-75) was > 100 µM (inactive) and the GI50 (SR) was 35.7 µM (inactive). For the same molecule, the GI50 (SW-620) was > 100 µM (inactive), the GI50 (TK-10) was > 100 µM (inactive) and the GI50 (U-251) was > 100 µM (inactive). The GI50 (UACC-257) was > 100 µM (inactive), the GI50 (UACC-62) was > 100 µM (inactive) and the GI50 (UO-31) was > 100 µM (inactive).
